Values quoted from earlier work as cited in patent US8986736B2, “Method for delivering particulate drugs to tissues” (Baxter International Inc., priority 2003, dated 2015).

Tested on: HIV-infected macrophages

## CC(C)(C)NC(=O)[C@@H]1C[C@@H]2CCCC[C@@H]2CN1C[C@@H](O)[C@H](Cc1ccccc1)NC(=O)[C@H](CC(N)=O)NC(=O)c1ccc2ccccc2n1 [saquinavir]
100 nM, in solution
  activity in chronically HIV-infected macrophages: completely inactive
Aqueous solution, HIV-infected macrophages
  antiviral activity: little antiviral activity
